System: NTW8 mouse microglial cells
Assay: Secretion of pro-inflammatory mediators from LPS/IFN-γ stimulated microglia
Assay type: cell-based
Conditions: LPS/INF-γ stimulated microglia cells, 24 hrs
Procedure: NTW8 mouse microglial cells were plated into a 96 well plate at a density of 2×10^5 cells/well in DMEM supplemented with 10% FCS, 2 mM glutamine, 10 ng/ml basic fibroblast growth factor (R&D Systems) and N-2 (Gibco). Next day, cell were stimulated for 24 hrs in DMEM containing 10 ng/ml LPS (Sigma) and 20 U/ml IFN-γ (Gibco) in the presence of increasing concentrations of the test compound solubilised in DMSO. Media was removed after 24 hrs and analysed by ELISA for secreted IL-6, TNF-α (R&D systems) and PGE2 (Amersham) or via a Greiss assay for nitric oxide (NO) production. Cell viability was assessed by an MTT assay (Promega). All data are means and SEM pooled from two independent experiments. Results are expressed as a percentage of the LPS\INF-γ stimulated control cells treated with DMSO alone.

O=C(O)Cc1cccc(OCCCN(Cc2cccc(C(F)(F)F)c2Cl)CC(c2ccccc2)c2ccccc2)c1 [Example 1, 2-(3-{3-[[2-Chloro-3-(trifluoromethyl)benzyl](2,2-diphenylethyl)amino]propoxy}-phenyl)acetic Acid]
inhibited: secretion of IL-6 (ELISA (FIG. 2)) | secretion of PGE2 (ELISA (FIG. 2)) | secretion of TNF-α (ELISA (FIG. 2)) | NO production (Greiss assay (FIG. 2))

— patent US20050171084A1, “Methods of treatment with lxr modulators” (priority 2002, published 2005)
